Measured values taken from patent US6890960B1, “Vetiver oil extracts as termite repellent and toxicant” (Board of Supervisors of Louisiana State University and …, priority 1999, dated 2005).
Like-named read-outs stand apart in the source and are kept apart here.

Legend:
[1] = tested on: Formosan subterranean termites; assay: Feeding and tunneling experiment with treated balsa wood; type: in vivo, Coptotermes formosanus; conditions: data not shown
Protocol: Balsa wood (5 cm×5 cm×0.5 mm) was soaked for 1 hr in a 1% ethanol solution of either vetiver oil, nootkatone, TIM-BOR®, or an ethanol control. The treated wood was then dried and allowed to air until used in the experiments. The experiments were run at one, three, and six months after the wood was treated. The feeding and tunneling experimental procedure was as described in Example 2, except that in place of the filter paper as food for the termites, treated balsa wood was placed in each end compartment; and untreated sand was placed in all three chambers. Into the center chamber was added 225 workers and 25 soldiers collected from two large Formosan termite colonies in New Orleans, La. Three replicate containers for each of the two colonies and for each treatment of balsa wood were monitored for 8 days. Tunneling activity was periodically checked on days 3, 5, and 7 by scanning the bottoms of the containers. On day 8, the balsa wood was removed and weighed to determine wood consumption.

[2] = tested on: humans; conditions: use in perfumery and flavor industries; cited from earlier work
[3] = tested on: Formosan subterranean termites; type: in vivo; conditions: for Worker Mortality, Mean ± S.D.: workers only
Protocol: The amount of nootkatone isolated from the vetiver oil was insufficient to test for termite repellant activity. Nootkatone was therefore purchased from a commercial source (Lancaster Synthesis Inc., Windham, N.H.). A three-chambered plastic container was used as described above in Example 2. A small hole was melted at the bottom of each of the two inner walls to connect the chambers. Four replicate chambers were used for each concentration of nootkatone (μg/g of sand) tested: 0, 10 μg/g, 20 μg/g, 100 μg/g, and 200 μg/g. For each concentration, the nootkatone in 25 ml ethyl alcohol was mixed with 500 g #4 blasting sand as described in Example 2. The sand was dried overnight. The next day, 115 g of treated sand was added to the middle chamber; 115 g untreated sand was added to one end chamber, and a weighted filter paper (Whatman #1, 55 mm) was placed in the opposite end chamber. The filter paper had been dried at 70° C. for 3 hr and cooled to room temperature before weighing. Then 10 ml ddH2O was added to each chamber with sand and 200 μl ddH2O was added to the filter paper. Four containers with no nootkatone served as negative controls. Fifty worker and 5 soldier termites from a single colony collected in Algiers, La., were placed in each untreated sand chamber. The chambers were covered and kept in a dark incubator at 29° C.
On the 16th day, the number of live termites was counted, and the bottom of each container was scanned to determine tunneling length as described in Example 2. The filter paper from each container was removed, cleaned, dried at 70° C. for 3 hr, cooled, and finally weighed.
Between-treatment differences in filter paper weight, mortality, and tunnel length in the treated compartments were compared by analysis of variance (ANOVA) and Tukey's Studentized Range Test. The results are presented in Tables 4, 5, and 6 and in FIGS. 1-3.

[4] = tested on: termites; assay: Quick petri dish termite distribution assay of α-cedrene (treated vs untreated sand); type: in vivo; conditions: 100 μg/dish
Protocol: The termite bio-activity of α-cedrene, a component of vetiver oil, was tested using a commercially available product (Fluka, a division of Sigma-Aldrich, Inc., St. Louis, Mo.). A new method for screening compounds for termite bio-activity was developed that was faster than the bioassay described in Example 2. Five cm diameter petri dishes with lids were used. Two ml of hot agar solution (1.5 g/100 ml ddH2O) was spread evenly in the bottom of each dish and allowed to cool. The agar solution provided moisture for the termites and held the sand in place. The sand was autoclaved for 30 min, the alcohol with sample added, and dried in an oven. For three dishes, one half of the bottom of each dish was covered with 1.5 g treated sand mixed with a total of 100 μg α-cedrene per dish, dissolved in 250 μl ethanol, and the other half with 1.5 g untreated sand (only ethanol). The sand completely covered the agar, but was not thick enough to conceal tunneling termites. Three dishes were prepared as a control with only untreated sand in each side. Finally, ten termites were added to each dish, and the dishes were covered to eliminate light.
The termite distribution in each dish, measured by counting the number of termites on the untreated half of the dish, was examined each hour for up to 8 hr. […] Therefore the extract was considered a repellent. The extract was considered toxic if some or all termites behaved sluggishly, were moribund or dead.

## C=C(C)C1CCC2=CC(=O)CC(C)C2(C)C1 (stereo not shown) [nootkatone, 4,4a5,6,7,8-hexahydro-6-isopropenyl-4,4a-dimethyl-2(3H)-naphthalenone]
[1]; 1 and 3 month interval after wood treatment
  ranking of effect on wood consumption: greatest effect on decreasing wood consumption
[1]; balsa wood soaked in 1% ethanol solution, 1, 3 and 6 months after treatment, day 8
  wood consumption vs control group: consumed less wood than the control group
[1]; six months after the initial treatment of the wood sample
  effectiveness as a termite repellent: retained their effectiveness
[1]; six months after wood treatment
  reduction of wood consumption compared with borate solution: as effective as the borate solution
[1]; treated balsa wood, even after three months
  tunneling activity of the termites: substantially reduced with vetiver oil and especially with nootkatone
[2]
  toxicity to humans: essentially non-toxic to humans
[3]; 10 μg/gm sand, 16th day
  Filter Paper Consumption, Mean ± S.D.: 0.0019 ± 0.002641 gm
  Tunnel Length in Treated Compartment, Mean ± S.D.: 7.225 ± 5.155 cm
  Worker Mortality, Mean ± S.D.: 88.50 ± 10.12
[3]; 20 μg/gm sand, 16th day
  Filter Paper Consumption, Mean ± S.D.: 0.000525 ± 0.000709 gm
  Tunnel Length in Treated Compartment, Mean ± S.D.: 0.000 ± 0.000 cm
  Worker Mortality, Mean ± S.D.: 87.00 ± 18.22
[3]; 100 μg/gm sand, 16th day
  Filter Paper Consumption, Mean ± S.D.: 0.000025 ± 0.000050 gm
  Tunnel Length in Treated Compartment, Mean ± S.D.: 0.000 ± 0.000 cm
  Worker Mortality, Mean ± S.D.: 90.50 ± 11.70
[3]; 200 μg/gm sand, 16th day
  Filter Paper Consumption, Mean ± S.D.: 0.000275 ± 0.00055 gm
  Tunnel Length in Treated Compartment, Mean ± S.D.: 0.000 ± 0.000 cm
  Worker Mortality, Mean ± S.D.: 95.00 ± 8.718
[3]; all chambers where the nootkatone concentration was ≦100 μg/g sand
  worker mortality: Ninety percent mortality or greater
[3]; concentrations higher than 10 μg/g, 16th day
  tunneling in the middle chamber: no tunneling was visible
[3]; concentrations higher than 20 μg/g
  consumption of filter paper: Almost no consumption of filter paper
[3]; in sand
  lowest concentration effective as repellent and toxicant (decreased tunneling and feeding, increased mortality): 10 µg/g
[3]; lowest concentration (10 μg/g)
  feeding as measured by loss of filter paper weight vs control: significantly decreased feeding
[3]; lowest concentration of 10 μg/g, 16th day
  tunneling activity in middle chamber: substantially decreased the tunneling activity

## CC1=CC[C@@]23C[C@@H]1C(C)(C)[C@@H]2CC[C@H]3C [α-Cedrene, α-cedrene]
[4]
  termite deaths: None of the termites died
[4]; 2-3 h time frame
  repellency for termites: weak repellent
[4]; 1 hr
  Percent of termites on the untreated side (sum of the three replicates): 50%
[4]; 2 hr
  Percent of termites on the untreated side (sum of the three replicates): 93.3%
[4]; 3 hr
  Percent of termites on the untreated side (sum of the three replicates): 86.7%
[4]; 4 hr
  Percent of termites on the untreated side (sum of the three replicates): 63.3%
[4]; 24 hr
  Percent of termites on the untreated side (sum of the three replicates): 63.3%
